In patent US4588715A, “Heptenoic acid derivatives” (Sandoz, Inc., priority 1984, dated 1986):
Several values for one entry are separate records, joined by “and”; a condition that tells them apart may be missing. Equal entries are not always repeated. Where two headings read alike, the source gives them in different places.

Tests used:
Cholesterol Biosynthesis [1] = experiment: Test B. In Vitro Cell Culture Cholesterol Biosynthesis Screen (Fu5AH rat hepatoma cell line); type: cell-based; settings: Fu5AH rat hepatoma cells, [14C]acetate, 3 hours; for inhibition at 10 µM: concentration 10 μM; for inhibition at 1 µM: concentration 1 μM
Experimental: Test B. In Vitro Cell Culture Cholesterol Biosynthesis Screen
The cell culture is prepared as follows: Stock monolayer cultures of the Fu5AH rat hepatoma cell line (originally obtained from G. Rothblat; see Rothblat, Lipids 9, 526-535 (1974) are routinely maintained in Eagle's Minimum Essential Medium (EMEM) supplemented with 10% fetal bovine serum (FBS) in 75 cm^2. tissue culture flasks. For these studies, when the cultures reach confluence, they are removed by mild enzymatic treatment with 0.25% trypsin in Hanks' balanced salt solution (without calcium and magnesium). After centrifugation of the cell suspension and aspiration of the enzymatic solution, the cell pellet is resuspended in an appropriate volume of media for seeding into 60 mm. tissue culture dishes. The cultures are incubated at 37° C. in an atmosphere of high humidity and 5% carbon dioxide. When the cultures are confluent (approximately 5 days), they are ready for use. The culture media is aspirated from the dishes and replaced with 3 ml. of EMEM supplemented with 5 mg./ml. of delipidized serum protein (DLSP) prepared by the method of Rothblat et al., In Vitro 12, 554-557 (1976). […] Enhanced 3-hydroxy-3-methylglutaryl Coenzyme A reductase (HMG-CoA reductase) activity is measurable in the cells in response to the lack of exogenous sterol. Following approximately 24 hours incubation at 37° C. in the DLSP supplemented media, the assay is initiated by the addition of 3μCi of [^14 C]acetate and the test substances solubilized in dimethylsulfoxide (DMSO) or distilled water. Solvent controls and compactin-treated controls are always prepared. Triplicate 60 mm. tissue culture dishes are run for each group. After 3 hours incubation at 37° C., the cultures are examined microscopically using an inverted phase contrast microscope. Notations are made of any morphological changes which may have occurred in the cultures. The media is aspirated and the cell layer is gently washed twice with 0.9% sodium chloride solution (saline). The cell layer is then harvested in 3 ml. of 0.9% saline by gentle scraping with a rubber policeman and transferred to a clean glass tube with Teflon lined cap. The dishes are rinsed with 3 ml. of 0.9 % saline and rescraped, and the cells are combined with the first harvest. The tubes are centrifuged at 1500 r.p.m. for 10 minutes in an IEC PR-J centrifuge, and the supernatant is aspirated.
The cells are then extracted as follows: One ml. of 100% ethanol is added to the cell pellet followed by sonication for 10 seconds with a "LO" setting of 50 on a Bronwell Biosonik IV. One hundred μL. are taken for protein determination. One ml. of 15% potassium hydroxide (KOH) is added, and the samples are thoroughly vortexed. Saponification is accomplished by heating the ethanol-KOH treated samples at 60° C. for 60 minutes in a water bath. Following dilution of the samples with 2 ml. of distilled water, they are extracted three times with 7 ml. of petroleum ether. The petroleum ether extracts are then washed three times with 2 ml. of distilled water and finally taken to dryness under a stream of nitrogen.
The obtained samples are then analyzed by thin layer chromatography (TLC) as follows: Residues from the petroleum ether extraction are taken up in a small volume of hexane and spotted on silica gel 60 TLC plates (E. Merck). Development of the plates is carried out in a 150 parts by volume hexane: 50 parts by volume diethyl ether: 5 parts by volume glacial acetic acid solvent system using a three phase development procedure. Visualization is accomplished in an iodine vapor chamber. The plates are divided into five sections such that each section contains the molecules having the following approximate Rf values: section 1-0-0.4, section 2-0.4-0.55, section 3-0.55-0.7, section 4-0.7-0.9 and section 5-0.9-1.0. Section 2 contains the non-saponifiable sterols. The five sections of the TLC plates are scraped into scintillation vials. […]

HMG-CoA reductase = molecular target: T1, HMG-CoA reductase (Rattus norvegicus, UniProt P51639); experiment: Test A. In Vitro Microsomal Assay of HMG-CoA Reductase Inhibition; type: biochemical; settings: saponified products M=Na, unsaponified products tested in DMA
T1 construct: the microsomes are the source of the HMG-CoA reductase enzyme; from tissue; host or cells: liver microsomes, male Sprague-Dawley rats
T1 sequence (P51639 1-887): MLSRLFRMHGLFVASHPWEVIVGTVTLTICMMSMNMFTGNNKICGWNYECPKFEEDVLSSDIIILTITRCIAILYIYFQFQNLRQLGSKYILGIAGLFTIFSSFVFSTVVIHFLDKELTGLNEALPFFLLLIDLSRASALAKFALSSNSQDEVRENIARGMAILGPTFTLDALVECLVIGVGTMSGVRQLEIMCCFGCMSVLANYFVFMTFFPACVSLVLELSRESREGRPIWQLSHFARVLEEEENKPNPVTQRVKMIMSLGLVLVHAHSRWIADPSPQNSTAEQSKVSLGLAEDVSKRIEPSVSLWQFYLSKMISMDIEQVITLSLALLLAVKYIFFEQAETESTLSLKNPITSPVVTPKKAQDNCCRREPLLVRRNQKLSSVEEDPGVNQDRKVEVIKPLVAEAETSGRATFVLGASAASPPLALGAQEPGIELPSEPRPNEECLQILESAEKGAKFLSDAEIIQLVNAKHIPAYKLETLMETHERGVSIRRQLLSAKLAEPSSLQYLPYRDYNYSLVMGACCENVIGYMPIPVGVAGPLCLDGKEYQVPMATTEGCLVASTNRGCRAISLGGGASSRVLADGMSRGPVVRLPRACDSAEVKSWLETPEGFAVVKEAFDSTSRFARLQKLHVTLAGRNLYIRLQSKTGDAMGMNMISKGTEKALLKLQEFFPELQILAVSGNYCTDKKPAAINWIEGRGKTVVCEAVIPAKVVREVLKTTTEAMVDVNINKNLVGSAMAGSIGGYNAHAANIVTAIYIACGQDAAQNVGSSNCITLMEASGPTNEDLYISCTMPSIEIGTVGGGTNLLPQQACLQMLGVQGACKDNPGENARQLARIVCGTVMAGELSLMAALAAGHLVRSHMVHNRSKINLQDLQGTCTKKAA
Experimental: Test A. In Vitro Microsomal Assay of HMG-CoA Reductase Inhibition
200 μl. aliquots (1.08-1.50 mg./ml.) of rat liver microsomal suspensions, freshly prepared from male Sprague-Dawley rats (150-225 g. body weight), in Buffer A with 10 mmol. dithiothreitol are incubated with 10 μl. test substance dissolved in dimethylacetamide and assayed for HMG-CoA reductase activity as described by Ackerman et al., J. Lipid Res. 18,408-413 (1977). In the assay the microsomes are the source of the HMG-CoA reductase enzyme which catalyzes the reduction of HMG-CoA to mevalonate. The assay employs a chloroform extraction to separate the product, [^14 C]mevalonolactone, formed by the HMG-CoA reductase reaction from the subsubstrate, [^14 C]HMG-CoA. [^3 H]mevalonolactone is added as an internal reference. Inhibition of HMG-CoA reductase is calculated from the decrease in specific activity [^14 C/^3 H]mevalonate) of test groups compared to controls.
IC50 is the concentration of the test substance in the assay system

Cholesterol Biosynthesis [2] = experiment: Test C: In Vivo Cholesterol Biosynthesis Inhibition Tests; parameters: species or system male Wistar Royal Hart rats; settings: for ED50: Rattus norvegicus
Experimental: Test C: In Vivo Cholesterol Biosynthesis Inhibition Tests: In vivo studies utilize male Wistar Royal Hart rats weighing 150±20 g. which have been kept for 7-10 days on an altered light cycle (6:30 A.M.-6:30 P.M. dark) housed two per cage and fed powdered Purina Rat Chow and water ad libitum. Three hours before the diurnal maximum of cholesterol synthesis at mid-dark, the rats are administered the test substances dissolved or as a suspension in 0.5% carboxymethylcellulose in a volume of 1 ml./100 g. body weight. Controls receive vehicle alone. One hour after receiving the test substance, the rats are injected intraperitoneally with about 25 μCi/100 g. body weight of sodium [1-^14 C]acetate 1-3 mCi/mmol. Two hours after mid-dark, blood samples are obtained under sodium hexobarbitol anesthesia and the serum separated by centrifugation.
Serum samples are saponified and neutralized, and the 3β-hydroxy sterols are precipitated with digitonin basically as described by Sperry et al., J. Biol. Chem. 187,97 (1950). The [^14 C]digitonides are then counted by liquid scintillation spectrometry. After correcting for efficiencies, the results are calculated in nCi (nanocuries) of sterol formed per 100 ml. of serum. Inhibition of sterol synthesis is calculated from the reduction in the nCi of sterols formed from test groups compared to controls.

Row | Compound | inhibition at 10 µM (Cholesterol Biosynthesis [1]) | IC50 (HMG-CoA reductase; IC50, rat liver microsomes) | other results
1 | C[Si](c1ccccc1)(c1ccccc1)c1ccccc1/C=C/[C@@H]1C[C@@H](O)CC(=O)O1 (relative stereo) [Example 3 (Ia"'), 4-Hydroxy-6{2-[2-(methyldiphenylsilyl)phenyl]ethenyl}-2H-tetrahydropyran-2-one(trans,trans)] | 74% | – | –
2 | C[Si](C)(c1ccccc1)c1ccccc1/C=C/[C@@H]1C[C@@H](O)CC(=O)O1 (relative stereo) [Example 4 (Ia"'), 4-Hydroxy-6{2-[2-(dimethylphenylsilyl)phenyl]ethenyl}-2H-tetrahydropyran-2-one] | 56% | – | –
3 | CCOC(=O)C[C@H](O)C[C@H](O)/C=C/c1c(C)cc(C)cc1[Si](C)(C)c1ccccc1 (relative stereo) [Example 5a (Ia')] | – | 14.7 µM | inhibition at 1 µM (Cholesterol Biosynthesis [1]): 47%
4 | CCOC(=O)C[C@H](O)C[C@H](O)/C=C/c1c(C)cc(OC)cc1[Si](C)(C)c1ccccc1 (relative stereo) [Example 5e (Ia')] | 28% | – | –
5 | Cc1cc(C)c(/C=C/[C@@H]2C[C@@H](O)CC(=O)O2)c([Si](C)(C)c2ccccc2)c1 (relative stereo) [Example 6a (Ia"')] | 73% | – | –
6 | Cc1cc(C)c(/C=C/[C@@H](O)C[C@@H](O)CC(=O)O)c([Si](C)(C)c2ccccc2)c1 (relative stereo) [Example 6a (Ia^s)] | – | 6.9 µM | –
7 | Cc1cc(Cl)cc([Si](C)(C)c2ccccc2)c1/C=C/[C@@H]1C[C@@H](O)CC(=O)O1 (relative stereo) [Example 6b (Ia"')] | – | 16.4 µM | –
8 | Cc1cc(Cl)cc([Si](C)(C)c2ccccc2)c1/C=C/[C@@H](O)C[C@@H](O)CC(=O)O (relative stereo) [Example 6b (Ia^s)] | – | 17.1 µM and 14.2 µM | –
9 | Cc1cccc([Si](C)(C)c2ccccc2)c1/C=C/[C@@H]1C[C@@H](O)CC(=O)O1 (relative stereo) [Example 6g (Ia"')] | 65% | 27.2 µM | % Inhibition (Cholesterol Biosynthesis [2]; dose 48 mg/kg, serum sterol synthesis, rats): 57%
10 | Cc1cccc([Si](C)(C)c2ccccc2)c1/C=C/[C@@H](O)C[C@@H](O)CC(=O)O (relative stereo) [Example 6g (Ia^s)] | – | 4.3 µM | –
11 | CCOC(=O)C[C@H](O)C[C@H](O)/C=C/c1c(C)cc(Cl)cc1[Si](C)(c1ccccc1)c1ccccc1 (relative stereo) [Example 7a (Ia')] | 17% | – | –
12 | Cc1cc(Cl)cc([Si](C)(c2ccccc2)c2ccccc2)c1/C=C/[C@@H]1C[C@@H](O)CC(=O)O1 (relative stereo) [Example 8a (Ia"')] | 33% | – | –
13 | Cc1cccc([Si](C)(c2ccccc2)c2ccccc2)c1/C=C/[C@@H](O)C[C@@H](O)CC(=O)O (relative stereo) [Example 8b (Ia^s)] | – | 52.4 µM | –
14 | CCOC(=O)C[C@H](O)C[C@H](O)/C=C/c1c(C)ccc(C)c1[Si](C)(C)c1ccccc1 (relative stereo) [Example 9 (Ib'), Ethyl 7-[3,6-dimethyl-(2-dimethylphenylsilyl)-phenyl]-3,5-dihydroxy hept-6-enoate, (erythro,trans)] | – | 28.1 µM | inhibition at 1 µM (Cholesterol Biosynthesis [1]): 19%
15 | Cc1ccc(C)c([Si](C)(C)c2ccccc2)c1/C=C/[C@@H]1C[C@@H](O)CC(=O)O1 (relative stereo) [Example 10 (Ib"'), 6-{2-[3,6-dimethyl-2-(dimethylphenylsilyl)phenyl]ethenyl}4-hydroxy-tetrahydro-2H-pyran-2-one (trans,trans)] | 63% | 24.4 µM | –
16 | Cc1ccc(C)c([Si](C)(C)c2ccccc2)c1/C=C/[C@@H](O)C[C@@H](O)CC(=O)O (relative stereo) [Example 10 (Ib^s)] | – | 9 µM | –
17 | CC[C@H](C)C(=O)O[C@H]1C[C@@H](C)C=C2C=C[C@H](C)[C@H](CC[C@@H]3C[C@@H](O)CC(=O)O3)[C@H]21 [Mevinolin] | – | – | ED50 (Cholesterol Biosynthesis [2]): 0.41 mg/kg
18 | CC[C@H](C)C(=O)O[C@H]1CCC=C2C=C[C@H](C)[C@H](CC[C@@H]3C[C@@H](O)CC(=O)O3)[C@H]21 [compactin, reference compound] | – | – | ED50 (Cholesterol Biosynthesis [2]; standard, serum sterol synthesis, rats, read-out: ED50): 3.5 mg/kg; inhibition at 0.08 µM (Cholesterol Biosynthesis [1]; concentration 0.08 μM): 50%; IC50 (HMG-CoA reductase; rat liver microsomes, read-out: IC50): 0.8 µM
